# Columns and labels:
# B16-F10 melanocytes = experiment: MTT cell viability after tunicamycin-induced ER stress (Test 1); format: cell-based; conditions: pre-treated 6 h, then 300 ng/ml tunicamycin, 72 h; FIG. 1
# Protocol: B16-F10 melanocytes were seeded (5000 cells per well) in 96-well plates for 24 h. Cells were then treated in quadruplicate with indicated concentration of N-[2-[2-(4-chlorophenyl)-4-thiazolyl]ethyl]-butanamide for 6 h. All the compounds dilutions were made in DMSO and the concentration of the vehicle (DMSO) was kept constant (0.1%) in each well. Cells were then treated with 300 ng/ml tunicamycin to cause ER stress and after 72 h of treatment, cells were observed under microscope and images were captured. Then MTT assay was performed to measure the cell viability. Briefly, MTT (0.5 mg/ml) was added to each well and further incubated for 1 h. Culture medium was removed and the reduced MTT (formazen) was dissolved in DMSO (100 μl per well) and measured at 570 nm. Cell growth in vehicle control was calculated as 100% and the effect of the compounds were calculated accordingly.
# B16-F10 cells [1] = experiment: Tyrosinase activity with tunicamycin treatment (Test 2); format: cell-based; conditions: pre-treated 6 h, tunicamycin 300 ng/ml, 72 h; % of vehicle control; FIG. 2
# Protocol: (§1) B16-F10 cells were seeded in 24-well plates (20000 cells per well) for 24 h. Cells were then treated with indicated concentrations of N-[2-[2-(4-chlorophenyl)-4-thiazolyl]ethyl]-butanamide. After 6 h of treatment with N-[2-[2-(4-chlorophenyl)-4-thiazolyl]ethyl]-butanamide, tunicamycin (300 ng/ml) was added to the indicated wells. After 72 h of treatments, cells were washed with PBS and lysed in phosphate buffer (pH 6.8) containing 1 mM EDTA and 01% Triton X-100. Lysate was cleared by centrifugation (12000×g) for 10 min and clear lysate (20 μl) was used for tyrosinase assay. The final concentrations of tyrosinase assay mixture were as follows: phosphate buffer (50 mM, pH 6.8), L-DOPA (1 mM), MBTH (6 mM), DMF (2%). Tyrosinase activity was measured by measuring the colored complex formed at 492 nm. Tyrosinase activity was normalized to total cellular proteins measured by Bradford's reagent and represented as % of vehicle control.
# melanocytes = experiment: Secreted melanin in cell culture supernatant (Test 3); format: cell-based; conditions: 72 h, with tunicamycin; % of control; FIG. 3
# Protocol: Cells were treated as indicated for 72 h. After incubation, cell culture supernatant was used for the estimation of secreted melanin. Secreted melanin was measured at 405 nm against cell culture medium as blank. Melanin levels were normalized to the total cellular proteins and represented as % of control.
# B16-F10 cells [2] = experiment: Tyrosinase activity with cocktail of inflammatory cytokines (Test 4); format: cell-based; conditions: pre-treated 6 h, TNFα, IL1β, IFNγ 10 ng/ml each, 72 h; FIG. 4
# Protocol: In FIG. 4—Cocktail of inflammatory cytokines—Inflammatory cytokines cause inflammation in the system and are implicated for the vitiligo pathology. The “cocktail of inflammatory cytokines” include tumour necrosis factor-alpha (TNFα), interleukin-1 beta (IL-1B) and interferon gamma (IFNγ) at a final concentration of 10 ng/ml each.
# as §1, with “(80000” for “(20000”, “a cocktail of inflammatory cytokines (TNFα, IL1β, IFNγ—10 ng/ml each)” for “tunicamycin (300 ng/ml)”, “to” for “to the”, “led to” for “was measured by measuring”, “conversion of L-DOPA into dopachrome that binds to MBTH and forms a color” for “colored”, “which is read” for “formed”
# [3] = tested on: NHEM, A375 melanoma, B16-F10 melanoma and NIH-3T3 fibroblasts; experiment: Cytotoxicity as LDH release (Test 5); format: cell-based; conditions: 24 hours treatment; FIG. 5
# Protocol: NHEM (normal human […] melanocytes), A375 melanoma, B16-F10 melanoma and NIH-3T3 fibroblasts were seeded in 96 well plates for 24 hours. Cells were then treated with VC (DMSO, 0.1%) or with indicated concentrations of N-[2-[2-(4-chlorophenyl)-4-thiazolyl]ethyl]-butanamide for 24 hours. After incubation period, cytotoxicity was measured as % of total LDH released in the culture medium.
# black guinea pigs = experiment: Animal model of vitiligo, topical application to ears (Test 6); format: in vivo, guinea pig; conditions: 1% w/w topical formulation, 4 weeks, versus placebo treated ear; FIG. 6
# Protocol: Topical formulation (1% w/w N-[2-[2-(4-chlorophenyl)-4-thiazolyl]ethyl]-butanamide) was prepared. Similarly, a placebo formulation was also prepared which was exactly similar to the N-[2-[2-(4-chlorophenyl)-4-thiazolyl]ethyl]-butanamide formulation except the active compound. The animal model of vitiligo was developed in black guinea pigs and the placebo and N-[2-[2-(4-chlorophenyl)-4-thiazolyl]ethyl]-butanamide formulations were applied on to the left and right ears respectively.
# obese-diabetic mouse = conditions: multiple obese-diabetic mouse models; cited from earlier work
# [4] = tested on: cells that expressed a mutant form of rhodopsin; conditions: mutant rhodopsin of autosomal dominant retinitis pigmentosa; protein misfolding and ER stress; cited from earlier work
# [5] = tested on: ER (endoplasmic reticulum); conditions: cited from earlier work
smiles,measurement,setting,value
CCCC(=O)NCCc1csc(-c2ccc(Cl)cc2)n1 [N-[2-[2-(4-chlorophenyl)-4-thiazolyl]ethyl]-butanamide],cell viability (MTT),B16-F10 melanocytes,protects melanocytes from tunicamycin induced cell death in a dose dependent manner
same,tyrosinase activity,B16-F10 cells [1],increases tyrosinase activity and reverses the tunicamycin effect
same,melanin secretion (melanin levels),melanocytes,increases melanin levels and reverses the tunicamycin effect
same,tyrosinase activity under inflammation,B16-F10 cells [2],negates inflammation induced effect in melanocytes
same,cytotoxicity (% of total LDH released),[3],no cytotoxicity
same,ear pigmentation,black guinea pigs,potency to cause repigmentation
same,B-cell function,obese-diabetic mouse,improved
same,glucose tolerance,obese-diabetic mouse,improved
same,insulin sensitivity,obese-diabetic mouse,improved
same,prevention of cell death,[4],effective in preventing the death of cells
same,ER protein folding output,[5],increasing ER protein folding output
same,chaperone expression,[5],chronically inducing chaperone expression

# — patent publication US12440478B2, “Process for preparing a potent thiazole compound, pharmaceutical formulation and uses thereof” (AHAMMUNE BIOSCIENCES PRIVATE LIMITED, priority 2018, dated 2025)
